Experimental findings from patent US11168073B2, “3,3-difluoroallylamines or salts thereof and pharmaceutical compositions comprising the same” (YUHAN CORPORATION, priority 2018, dated 2021) are described below.

Structures can show the parent of a compound that is named as a salt. Where two headings read alike, the source gives them in different places. A value given as a limit tells only on which side of the number the result lay.

What all share (type): biochemical
One assay has as its target T1, recombinant human VAP-1 (Homo sapiens, UniProt Q16853).
T1 construct: purchased R&D systems
T1 sequence (Q16853 1-763): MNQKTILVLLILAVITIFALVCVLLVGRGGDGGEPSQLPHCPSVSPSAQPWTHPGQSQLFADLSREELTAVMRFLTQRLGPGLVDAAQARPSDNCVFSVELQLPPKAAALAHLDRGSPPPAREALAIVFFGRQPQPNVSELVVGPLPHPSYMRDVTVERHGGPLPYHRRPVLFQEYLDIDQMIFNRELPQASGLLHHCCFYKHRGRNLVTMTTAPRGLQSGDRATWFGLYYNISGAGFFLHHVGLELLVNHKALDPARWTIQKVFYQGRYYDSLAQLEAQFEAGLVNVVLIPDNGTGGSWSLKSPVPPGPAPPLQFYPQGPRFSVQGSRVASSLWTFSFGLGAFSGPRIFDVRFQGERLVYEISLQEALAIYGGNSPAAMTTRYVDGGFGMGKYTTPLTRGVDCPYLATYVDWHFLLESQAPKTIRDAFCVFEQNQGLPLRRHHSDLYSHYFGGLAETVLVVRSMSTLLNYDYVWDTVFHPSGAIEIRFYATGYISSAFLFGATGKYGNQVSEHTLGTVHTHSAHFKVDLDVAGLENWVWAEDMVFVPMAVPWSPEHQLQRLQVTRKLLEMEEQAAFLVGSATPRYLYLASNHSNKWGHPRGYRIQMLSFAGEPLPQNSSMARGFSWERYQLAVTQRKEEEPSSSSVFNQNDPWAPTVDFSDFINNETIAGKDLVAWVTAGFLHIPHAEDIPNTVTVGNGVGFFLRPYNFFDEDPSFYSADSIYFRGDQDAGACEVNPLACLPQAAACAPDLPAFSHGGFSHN
Nature of the assay: Activity evaluation on recombinant human VAP-1 (Amplex Red/HRP-coupled hydrogen peroxide assay, benzylamine substrate). The following applies: read-out: Inhibitory Activity (IC50, nM) human VAP-1. A digest of the protocol:
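Hydrogen peroxide from benzylamine (1 mM) oxidation by human recombinant VAP-1 detected via HRP-coupled Amplex Red (200 uM) fluorescence, kinetic over 1–2 h. Enzyme and compound preincubated 30 min at 37 °C, pH 7.4 phosphate; 8-point dose response, signal-rate decrease versus DMSO control fitted to four-parameter logistic for IC50.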

Assay [1] addresses T2, recombinant human DAO (diamine oxidase) (Homo sapiens, UniProt P19801).
T2 construct: purchased R&D systems
T2 sequence (P19801 20-751): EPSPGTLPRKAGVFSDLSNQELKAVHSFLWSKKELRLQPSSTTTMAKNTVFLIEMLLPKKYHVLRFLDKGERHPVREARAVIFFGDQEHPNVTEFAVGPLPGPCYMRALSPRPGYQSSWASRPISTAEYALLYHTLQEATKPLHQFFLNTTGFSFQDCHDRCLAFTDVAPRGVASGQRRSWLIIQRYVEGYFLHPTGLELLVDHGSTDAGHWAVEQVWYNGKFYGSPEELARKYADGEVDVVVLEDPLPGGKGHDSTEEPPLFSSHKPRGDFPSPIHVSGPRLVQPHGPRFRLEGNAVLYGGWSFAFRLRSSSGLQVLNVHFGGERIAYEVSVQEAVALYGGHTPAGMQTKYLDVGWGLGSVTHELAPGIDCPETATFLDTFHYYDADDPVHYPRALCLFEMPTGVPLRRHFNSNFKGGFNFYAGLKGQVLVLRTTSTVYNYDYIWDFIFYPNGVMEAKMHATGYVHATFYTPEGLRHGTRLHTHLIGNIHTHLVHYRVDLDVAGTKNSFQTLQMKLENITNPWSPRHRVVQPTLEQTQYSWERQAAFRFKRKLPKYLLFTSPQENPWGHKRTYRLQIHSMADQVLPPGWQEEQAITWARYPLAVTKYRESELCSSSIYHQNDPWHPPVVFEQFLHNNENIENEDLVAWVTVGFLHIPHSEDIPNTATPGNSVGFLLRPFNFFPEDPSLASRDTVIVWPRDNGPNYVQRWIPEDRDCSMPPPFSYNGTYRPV
Briefly: Activity evaluation on recombinant human DAO (Amplex Red/HRP-coupled assay, 1 mM putrescine substrate). The following applies: read-out: Inhibitory Activity (IC50, nM) DAO. A digest of the protocol: (§1)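 Each oxidase is tested with its own substrate: MAO-A with 0.5 mM tyramine, MAO-B with 1 mM benzylamine, DAO with 1 mM putrescine. After 30 min enzyme-compound preincubation at 37 °C, Amplex Red (200 uM) plus HRP (1 U/mL) reports H2O2 as fluorescence; IC50 is fitted from eight-point curves.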

For assay [2], the target named is T3, recombinant human MAO-A (monoamine oxidase-A) (Homo sapiens, UniProt P21397).
T3 construct: purchased Sigma-Aldrich
T3 sequence (P21397 1-527): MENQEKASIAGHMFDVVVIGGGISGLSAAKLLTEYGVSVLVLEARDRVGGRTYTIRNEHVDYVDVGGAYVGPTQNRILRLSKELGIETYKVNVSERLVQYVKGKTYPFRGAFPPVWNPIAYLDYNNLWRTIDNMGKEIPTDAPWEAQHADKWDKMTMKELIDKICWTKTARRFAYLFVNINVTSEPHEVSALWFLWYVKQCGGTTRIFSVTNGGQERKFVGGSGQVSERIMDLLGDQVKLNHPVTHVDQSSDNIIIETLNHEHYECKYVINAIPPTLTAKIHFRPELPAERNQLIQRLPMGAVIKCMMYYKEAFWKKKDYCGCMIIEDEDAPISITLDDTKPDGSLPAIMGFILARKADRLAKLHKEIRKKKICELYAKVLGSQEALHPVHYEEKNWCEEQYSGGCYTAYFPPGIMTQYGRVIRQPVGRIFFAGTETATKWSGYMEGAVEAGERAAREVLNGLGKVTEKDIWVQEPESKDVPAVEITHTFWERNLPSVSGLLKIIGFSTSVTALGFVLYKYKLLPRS
Briefly: Activity evaluation on recombinant human MAO-A (Amplex Red/HRP-coupled assay, 0.5 mM tyramine substrate). The following applies: read-out: Inhibitory Activity (IC50, nM) MAO-A. Put shortly: as §1

For assay [3], the target named is T4, recombinant human MAO-B (monoamine oxidase-B) (Homo sapiens, UniProt P27338).
T4 construct: purchased Sigma-Aldrich
T4 sequence (P27338 1-520): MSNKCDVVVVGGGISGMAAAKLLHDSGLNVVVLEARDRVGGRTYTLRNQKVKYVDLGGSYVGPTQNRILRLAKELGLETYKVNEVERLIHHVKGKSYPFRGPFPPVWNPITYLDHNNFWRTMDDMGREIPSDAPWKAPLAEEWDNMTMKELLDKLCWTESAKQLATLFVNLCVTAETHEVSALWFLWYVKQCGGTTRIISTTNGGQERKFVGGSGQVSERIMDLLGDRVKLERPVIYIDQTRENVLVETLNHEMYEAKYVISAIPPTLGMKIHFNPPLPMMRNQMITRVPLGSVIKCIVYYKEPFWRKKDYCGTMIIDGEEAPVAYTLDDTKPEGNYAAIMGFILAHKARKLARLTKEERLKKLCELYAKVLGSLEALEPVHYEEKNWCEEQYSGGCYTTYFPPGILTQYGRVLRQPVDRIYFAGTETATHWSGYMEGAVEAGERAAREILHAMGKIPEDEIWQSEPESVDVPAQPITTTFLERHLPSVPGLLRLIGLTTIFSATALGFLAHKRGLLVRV
Nature of the assay: Activity evaluation on recombinant human MAO-B (Amplex Red/HRP-coupled assay, 1 mM benzylamine substrate). Particulars: read-out: Inhibitory Activity (IC50, nM) MAO-B. Put shortly:
as §1

Setting [4] is: recombinant human VAP-1, 30 min preincubation at 37° C., 1 mM benzylamine.
[5] abbreviates: recombinant human VAP-1, benzylamine substrate.

As to `Cc1cc(-c2ccc(S(C)(=O)=O)cc2)cnc1-n1cnn(CC(CN)=C(F)F)c1=O` [Example 68, 2-[2-(aminomethyl)-3,3-difluoro-allyl]-4-[3-methyl-5-(4-methylsulfonylphenyl)-2-pyridyl]-1,2,4-triazol-3-one Trifluoroacetate], the IC50 – broadly, the point on the concentration scale where inhibition reaches its midpoint – was 0.5 nM at recombinant human VAP-1 (setting [4]), 2100 nM in assay [1] (1 mM putrescine), above 100000 nM in assay [2] (0.5 mM tyramine) and 55000 nM in assay [3] (1 mM benzylamine).
Consider `NCC(Cn1ncn(CCc2ccc(-c3ccc4c(c3)OCO4)s2)c1=O)=C(F)F` [Example 177, 2-[2-(aminomethyl)-3,3-difluoro-allyl]-4-[2-[5-(1,3-benzodioxol-5-yl)-2-thienyl]ethyl]-1,2,4-triazol-3-one Trifluoroacetate], for which the IC50 at recombinant human VAP-1 (setting [4]) is 1.2 nM; in assay [1] (1 mM putrescine), 2500 nM; in assay [2] (0.5 mM tyramine), above 100000 nM; in assay [3] (1 mM benzylamine), 700 nM.
With `CCn1cc(-c2ccc(-n3cnn(CC(CN)=C(F)F)c3=O)cn2)cn1` [Example 45, 2-[2-(aminomethyl)-3,3-difluoro-allyl]-4-[6-(1-ethylpyrazol-4-yl)-3-pyridyl]-1,2,4-triazol-3-one Trifluoroacetate], the IC50 at recombinant human VAP-1 (setting [4]) was 0.2 nM; in assay [1] (1 mM putrescine) it was 200 nM; in assay [2] (0.5 mM tyramine), above 100000 nM; in assay [3] (1 mM benzylamine) it was 410 nM.
The matching figures for `CC(=O)N1CC=C(c2ccc(Cn3cnn(CC(CN)=C(F)F)c3=O)s2)CC1` [Example 125, 2-[2-(aminomethyl)-3,3-difluoro-allyl]-4-[[5-(1-acetyl-3,6-dihydro-2H-pyridin-4-yl)-2-thienyl]methyl]-1,2,4-triazol-3-one Trifluoroacetate]: 2.5 nM, above 100000 nM, above 100000 nM and above 100000 nM.
The like results for `NCC(Cn1ncn(Cc2ccc(-c3ccn4ncnc4c3)s2)c1=O)=C(F)F` [Example 128, 2-[2-(aminomethyl)-3,3-difluoro-allyl]-4-[[5-([1,2,4]triazolo[1,5-a]pyridin-7-yl)-2-thienyl]methyl]-1,2,4-triazol-3-one Trifluoroacetate] were, in that order, 0.7 nM, 97000 nM, above 100000 nM and above 100000 nM.
The matching figures for `NCC(Cn1ncn(-c2ncc(-c3ccc(C(F)(F)F)nc3)cc2F)c1=O)=C(F)F` [Example 84, 2-[2-(aminomethyl)-3,3-difluoro-allyl]-4-[3-fluoro-5-[6-(trifluoromethyl)-3-pyridyl]-2-pyridyl]-1,2,4-triazol-3-one Trifluoroacetate]: 0.2 nM, 7 nM, above 100000 nM and 900 nM.
Consider `CNC(=O)c1ccc(-c2ccc(Cn3cnn(CC(CN)=C(F)F)c3=O)s2)cc1` [Example 104, 4-[5-[[1-[2-(aminomethyl)-3,3-difluoro-allyl]-5-oxo-1,2,4-triazol-4-yl]methyl]-2-thienyl]-N-methyl-benzamide trifluoroacetate], for which the IC50 on recombinant human VAP-1 (setting [4]) was 0.5 nM; in assay [1] (1 mM putrescine) it was 31000 nM; in assay [2] (0.5 mM tyramine), above 100000 nM; in assay [3] (1 mM benzylamine) it was above 10000 nM.
On to `Cc1cc(C#Cc2ccc3c(c2)CCC(=O)N3)cnc1-n1cnn(CC(CN)=C(F)F)c1=O` [Example 249, 6-[2-[6-[1-[2-(aminomethyl)-3,3-difluoro-allyl]-5-oxo-1,2,4-triazol-4-yl]-5-methyl-3-pyridyl]ethynyl]-3,4-dihydro-1H-quinolin-2-one Trifluoroacetate], for which the IC50 was 0.9 nM on recombinant human VAP-1 (setting [5]), 3900 nM in assay [1] (1 mM putrescine substrate), above 100000 nM in assay [2] (0.5 mM tyramine substrate) and 3100 nM in assay [3] (1 mM benzylamine substrate).
For `Cc1cc(-c2ccc(-n3cnn(CC(CN)=C(F)F)c3=O)c(F)c2)cc2c1NC(=O)CC2` [Example 36, 6-[4-[1-[2-(aminomethyl)-3,3-difluoro-allyl]-5-oxo-1,2,4-triazol-4-yl]-3-fluoro-phenyl]-8-methyl-3,4-dihydro-1H-quinolin-2-one Trifluoroacetate], the IC50 is 0.1 nM on recombinant human VAP-1 (setting [4]), 97 nM in assay [1] (1 mM putrescine), above 100000 nM in assay [2] (0.5 mM tyramine) and 160 nM in assay [3] (1 mM benzylamine).
On to `CCn1cc(-c2cccc(-n3cnn(CC(CN)=C(F)F)c3=O)n2)ccc1=O` [Example 218, 5-[6-[1-[2-(aminomethyl)-3,3-difluoro-allyl]-5-oxo-1,2,4-triazol-4-yl]-2-pyridyl]-1-ethyl-pyridin-2-one Trifluoroacetate], for which the IC50 was 0.8 nM on recombinant human VAP-1 (setting [5]), 130 nM in assay [1] (1 mM putrescine substrate), above 100000 nM in assay [2] (0.5 mM tyramine substrate) and above 100000 nM in assay [3] (1 mM benzylamine substrate).
As for `CN(C)c1ccc(-c2cccc(-n3cnn(CC(CN)=C(F)F)c3=O)c2)cn1` [Example 20, 2-[2-(aminomethyl)-3,3-difluoro-allyl]-4-[3-[6-(dimethylamino)-3-pyridyl]phenyl]-1,2,4-triazol-3-one Trifluoroacetate], the IC50 was 2.1 nM at recombinant human VAP-1 (setting [4]), 350 nM in assay [1] (1 mM putrescine), above 100000 nM in assay [2] (0.5 mM tyramine) and above 100000 nM in assay [3] (1 mM benzylamine).
